Where two headings read alike, the source gives them in different places.
Assays:
[1] = target: Bcl-2 (Homo sapiens, UniProt P10415); assay: Bcl-2 binding affinity analysis (fluorescence polarization binding assay)
How it was run: (§1)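 Sensitive, quantitative cell-free test: compound incubated with protein, then polarization of emitted fluorescence recorded to gauge affinity.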

[2] = target: Bcl-xL (Homo sapiens, UniProt Q07817); assay: Bcl-xL binding affinity analysis (fluorescence polarization binding assay); design: scale not given here
Bcl-xL, sequence (Q07817 whole entry): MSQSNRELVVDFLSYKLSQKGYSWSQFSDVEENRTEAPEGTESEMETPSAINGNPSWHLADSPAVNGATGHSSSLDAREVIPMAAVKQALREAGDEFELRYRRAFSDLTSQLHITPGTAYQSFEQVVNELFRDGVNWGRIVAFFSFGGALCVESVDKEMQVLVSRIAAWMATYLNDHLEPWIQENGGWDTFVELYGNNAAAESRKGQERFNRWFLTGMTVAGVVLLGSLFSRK
How it was run: as §1

[3] = system: RL Human Follicular Lymphoma Cell Line; assay: Alamar blue cytotoxicity assay in RL cells; format: cell-based; details: Homo sapiens, 72 h incubation, read-out: Bcl RL Alamar Blue IC50
How it was run: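 Compounds tested at 29 uM to 0.013 uM final (0.3% DMSO) on 30,000 RL cells per well. After 72 h at 37 C, 5% CO2, viability read with Alamar blue.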

[4] = system: Human Pancreatic Cancer Cell Line Panc1; assay: Cell death assay (propidium iodide/Hoechst) in Panc1 cells with or without camptothecin; format: cell-based; details: 72 hours, % cell death by propidium iodide/Hoechst
How it was run: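 Panc1 cells, 10,000/well, exposed 72 h at 37 C to compound (29 uM to 0.13 uM, 0.3% DMSO) with or without 3 uM camptothecin. Propidium iodide and Hoechst staining imaged by fluorescence microscopy; % cell death = PI-stained/Hoechst-stained cells × 100.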

[5] = Homo sapiens, PANC-1, without camptothecin, read-out: Panc1 − Cpt IC50
[6] = with 3 uM Camptothecin, read-out: Panc1 + Cpt IC50

Bcl-2, sequence (P10415 whole entry): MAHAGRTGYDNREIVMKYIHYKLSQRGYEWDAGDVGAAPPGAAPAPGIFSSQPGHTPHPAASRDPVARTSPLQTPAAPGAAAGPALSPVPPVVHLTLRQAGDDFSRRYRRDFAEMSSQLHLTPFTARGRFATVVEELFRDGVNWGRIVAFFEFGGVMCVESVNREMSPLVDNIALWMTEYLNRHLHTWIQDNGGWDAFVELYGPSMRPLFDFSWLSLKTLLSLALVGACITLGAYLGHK

SMILES | Ki [1] | Bcl-XL binding affinity Ki [2] | IC50 [3] | IC50 [4, 5] | IC50 [4, 6]
CC(O)C1C(CO)ON(Cc2cccc(CN(CCN(C)C)Cc3ccccc3I)c2)C1C(=O)NC1CC2CC(C1C)C2(C)C (stereo not drawn) [Compound 394] | < 800 nM | ♯ | < 2000 nM | > 2500 nM | > 2500 nM
COc1c(CN2O[C@@H](CO)[C@@H]([C@H](C)O)[C@H]2C(=O)N[C@H]2C[C@H]3C[C@@H]([C@@H]2C)C3(C)C)cccc1-c1cccc(C(=O)N[C@H](CN(C)C)C2CCCCC2)c1 [Compound 480] | < 800 nM | ♯ | 2000 to 5000 nM | > 2500 nM | 1300 to 1800 nM
CC(O)C1C(CO)ON(Cc2cccc(CN3Cc4ccccc4C3CN(C)C)c2)C1C(=O)NC1CC2CC(C1C)C2(C)C (stereo not drawn) [Compound 470] | < 800 nM | ♯ | > 5000 nM | > 2500 nM | > 2500 nM
CC(C)C[C@@H](CN(C)C)N(Cc1cccc(CN2O[C@@H](CO)C([C@H](C)O)[C@H]2C(=O)N[C@H]2C[C@H]3C[C@@H]([C@@H]2C)C3(C)C)c1)Cc1ccccc1O (stereo partly drawn) [Compound 300] | < 800 nM | ♯ | < 2000 nM | > 2500 nM | 1800 to 2500 nM
CC(O)C1C(CO)ON(Cc2cccc(CN(CCN(C)C)Cc3c(F)cccc3C(F)(F)F)c2)C1C(=O)NC1CC2CC(C1C)C2(C)C (stereo not drawn) [Compound 412] | < 800 nM | ♯ | < 2000 nM | > 2500 nM | 1300 to 1800 nM
CC(O)C1C(CO)ON(Cc2cccc(CN(Cc3ccccc3)C(CN(C)C)c3ccccc3)c2)C1C(=O)NC1CC2CC(C1C)C2(C)C (stereo not drawn) [Compound 418] | < 800 nM | ♯ | 2000 to 5000 nM | 1800 to 2500 nM | 1800 to 2500 nM
CC(O)C1C(CO)ON(Cc2cccc(CN(CCN(C)C)Cc3ccc([N+](=O)[O-])cc3)c2)C1C(=O)NC1CC2CC(C1C)C2(C)C (stereo not drawn) [Compound 396] | < 800 nM | ♯ | > 5000 nM | > 2500 nM | > 2500 nM
COc1ccccc1CN(Cc1cccc(CN2OC(CO)C(C(C)O)C2C(=O)NC2CC3CC(C2C)C3(C)C)c1)C(CC(C)C)CN(C)C (stereo not drawn) [Compound 301] | < 800 nM | ♯ | < 2000 nM | > 2500 nM | > 2500 nM

Now from value to molecule, other results behind:

Ki [1] | Bcl-XL binding affinity Ki [2] | SMILES | IC50 [3] | IC50 [4, 5] | IC50 [4, 6]
< 800 nM | ♯ | CC(C)CC(CN(C)C)N(Cc1cccc(CN2OC(CO)C(C(C)O)C2C(=O)NC2CC3CC(C2C)C3(C)C)c1)Cc1ccccc1Cl (stereo not drawn) [Compound 313] | < 2000 nM | 1300 to 1800 nM | 1300 to 1800 nM
< 800 nM | ♯ | CC(O)C1C(CO)ON(Cc2cccc(CN(CCN(C)C)CC3CCOC3)c2)C1C(=O)NC1CC2CC(C1C)C2(C)C (stereo not drawn) [Compound 391] | > 5000 nM | > 2500 nM | > 2500 nM
< 800 nM | ♯ | CC(C)C(CN(C)C)N(Cc1ccccc1)Cc1cccc(CN2OC(CO)C(C(C)O)C2C(=O)NC2CC3CC(C2C)C3(C)C)c1 (stereo not drawn) [Compound 415] | 2000 to 5000 nM | > 2500 nM | > 2500 nM
< 800 nM | ♯ | COc1c(CN2O[C@@H](CO)[C@@H]([C@H](C)O)[C@H]2C(=O)N[C@H]2C[C@H]3C[C@@H]([C@@H]2C)C3(C)C)cccc1-c1cccc(C(=O)N[C@H](CN(C)C)C(C)C)c1 [Compound 488] | 2000 to 5000 nM | > 2500 nM | > 2500 nM
< 800 nM | ♯ | CC(C)CC(CN(C)C)N(Cc1cccc(CN2OC(CO)C(C(C)O)C2C(=O)NC2CC3CC(C2C)C3(C)C)c1)Cc1c(F)cccc1C(F)(F)F (stereo not drawn) [Compound 339] | < 2000 nM | > 2500 nM | > 2500 nM
< 800 nM | ♯ | C[C@@H]1[C@@H](NC(=O)[C@@H]2C([C@H](C)O)[C@H](CO)ON2Cc2cccc(CN(CCN(C)C)Cc3ccc(Br)cc3)c2)C[C@H]2C[C@@H]1C2(C)C (stereo partly drawn) [Compound 360] | > 5000 nM | > 2500 nM | > 2500 nM
< 800 nM | ♯ | CC(C)CC(CN(C)C)N(Cc1cccc(CN2OC(CO)C(C(C)O)C2C(=O)NC2CC3CC(C2C)C3(C)C)c1)Cc1ccccc1C#N (stereo not drawn) [Compound 314] | < 2000 nM | > 2500 nM | > 2500 nM
< 800 nM | ♯ | CC(O)C1C(CO)ON(Cc2cccc(CN(CCN(C)C)CC3=CCCCC3)c2)C1C(=O)NC1CC2CC(C1C)C2(C)C (stereo not drawn) [Compound 354] | < 2000 nM | 1800 to 2500 nM | 1300 to 1800 nM
< 800 nM | ♯ | CC(O)C1C(CO)ON(Cc2cccc(CN(CCN(C)C)CC3CC3)c2)C1C(=O)NC1CC2CC(C1C)C2(C)C (stereo not drawn) [Compound 390] | > 5000 nM | > 2500 nM | > 2500 nM
< 800 nM | ♯ | CC(O)C1C(CO)ON(Cc2cccc(CN(CCN3CCCC3)CC3CCCCC3)c2)C1C(=O)NC1CC2CC(C1C)C2(C)C (stereo not drawn) [Compound 425] | < 2000 nM | > 2500 nM | > 2500 nM
